Here are results for one compound from patent US8063094B2, “Anti-cytokine heterocyclic compounds” (Boehringer Ingelheim International GmbH, priority 2007, dated 2011).

As a reminder, the melting point is the temperature, or range, at which the solid turns liquid. As for `CNCCCc1c(C(=O)O)[nH]c2ccc(C(N)=O)cc12` [Example 13, 5-carboxamide-3-(3-methylaminopropyl)-1H-indole-2-carboxylic acid], the melting point was 266 to 268 °C (dec.).
